The numbers were not newly measured in article PMC5085262 (Chemical Science, 2016), which cites them from elsewhere.

For this series the following is noted: no reference given.

In the case of `Oc1cccc2cccnc12` [Quin, 8-hydroxyquinoline], the “pKa of the free ligand (phenolate group)” value was “≈ 9.9”.
